Measured values reported in US10672502B2, “Methods for determining protein structure using a surface-selective nonlinear optical technique” (Biodesy, Inc., priority 2015, dated 2020).
Read-outs that look alike come from different tables or passages of the source.

System: dihydrofolate reductase (DHFR)
Conditions: 1 uM TMP
Method: Immediately before applying DOPC/DGS NTA (Ni) lipids, clean microscope slides with Piranha wash for 20 minutes. Rinse 3× with diH2O in a slide staining vessel. Dry slides with compressed Nitrogen. Assemble SHG wells by attaching adhesive gaskets to Piranha-cleaned slides (i.e., 16 wells per slide containing 10-20 μl volume). Use an assembly jig to align gaskets, carefully lay slide into jig and press firmly. Dilute DOPC/DGS NTA (Ni) lipid prep 1:1 with PBS or TBS buffers. 100 mM NaCl is required to reduce hydrostatic charge of the glass slide and enable the supported lipid bilayer (SLB) to form. Pipet 10-20 μL of diluted DOPC/DGS NTA (Ni) lipid into the wells of the slide and incubate for 5 minutes at room temperature. Wash the wells by submersing the slide in buffer bath (PBS or TBS) and agitating with a 200 μL pipettor taking care not to introduce air into the wells at any time. Exchange the entire volume of buffer in the bath with fresh buffer and repeat the washing step 2 more times. Add a 1:1 volume of 100 mM NiCl2 solution to all wells and incubate for 10 minutes at room temperature. Wash the wells by submersing the slide in buffer bath (PBS or TBS) and agitating with a 200 μL pipettor. Exchange the entire volume of buffer in bath with fresh buffer and repeat the washing step 2 more times. […]

COc1cc(Cc2cnc(N)nc2N)cc(OC)c1OC [TMP, trimethoprim]
decrease in baseline signal (SHG % change, Izzz) (cysteine-labeled DHFR mutant tethered to Ni/NTA supported lipid bilayer via His tag at the C-terminus): approximately 90% | decrease in baseline signal (SHG % change, Izzz) (cysteine-labeled DHFR mutant tethered to Ni/NTA supported lipid bilayer via His tag at the N-terminus, FIG. 14A): roughly 70%
